# Where two headings read alike, the source gives them in different places.
# Assays:
# A549 cell culture = test: Cell permeability testing (LC/MS/MS of cell lysates and media); format: in vitro ADME, human; settings: for Cell Permeability, 2 × 10^4 Cells/L / Cell Permeability, 4 × 10^4 Cells/L: 24 h
# Procedure: To test cell permeability, each compound was added to A549 cell culture at a concentration of 20 μM and incubated for 24 h. Cells were seeded in 6-well plates at a density of 2 × 10^4 and 4 × 10^4 cells per well at concentrations 1 × 10^4 and 2 × 10^4 cells/mL media for the testing of each compound, each in three replicates. After the incubation, the cell cultivation media and cell lysates were collected. After the removal of media, cells were washed with ice-cold PBS (Sigma, D1408, Irvin, UK) and lysed for 30 min in 500 µL per well ice-cold RIPA buffer (Sigma, R0278, St Louis, MO, USA). Samples were stored at −80 °C until analysis.
# The quantitative determination of tested compounds in cell lysates and culture media was performed on a Waters MICROMASS QUATTRO microTM tandem mass spectrometer combined with Acquity UPLC system. Acquity UPLC BEH C8 (2.1 × 50 mm × 1.7 μm) column was used at a flow rate of 0.25 mL/min. The column oven was set at 30 °C, and the sample injection volume was 5 μL. The mobile phase consisted of a combination of A (0.1% formic acid in water) and B (acetonitrile). The gradient elution program from 5% B to 98% B in 5 min was applied for analysis. Tandem mass spectrometer in positive electrospray mode was used for quantification. The TargetLynx software was applied to process LC/MS/MS data. Samples for LC/MS/MS analysis were prepared as follows: 200 μL of acetonitrile/methanol mixture (3:1 v/v) was add to 200 μL of each cell lysate and culture media sample. Then, the samples were centrifuged (10,000 rpm, 10 min), and the supernatants (300 μL) were removed from each sample and placed in vials for LC/MS/MS analysis. Calibration curves for all analytes were produced by analysis of standard solutions over a concentration range of 0.2 to 20 μM.
# [1] = Cytotoxicity, neutral red uptake, HepG2; format: cell-based; settings: human
# Procedure: (§1) A549 human non-small cell lung cancer cell line, HepG2 hepatocarcinoma cells, and BALB/c 3T3 clone A31 murine fibroblast cell line for the study were obtained from ATCC (American Type Culture Collection, Manassas, VA, USA). Cells were propagated in DMEM medium (Sigma, D6046, Irvin, UK) supplemented with 1% penicillin (100 U/mL)–streptomycin (100 μg/mL) and 10% foetal bovine serum (Sigma, F7524, St Louis, MO, USA) in case of A549 and HepG2 or 10% calf serum (Sigma, C8056, St Louis, MO, USA) in case of BALB/c 3T3. All cultivations were performed in a humidified 5% CO2 atmosphere at 37 °C.
# (§2) The cytotoxicity of the compounds was tested in A549, HepG2, and BALB/c3T3 cell lines by neutral red (NR) uptake assay. A549 and BALB/c3T3 cells were seeded in 96-well plates at a density of 8 × 10^3 cells per well, HepG2 at density 1.2 × 10^4 cells per well. After 24 h incubation, test compounds in a concentration range of 0.8 to 200 μM were added. Cultivation in the presence of test compounds was done for 48 h. Afterwards, the plates were washed with phosphate-buffered saline (PBS) (Sigma, D8537, Irvin, UK), and 25 µg/mL NR solution (Sigma, N2889, Irvin, UK) was added. In case of BALB/c 3T3 cells, NR was diluted in 5% foetal calf serum containing media, while for A549 and HepG2 cells, it was diluted in 5% foetal bovine serum containing media. After 3 h incubation, the plate was washed with PBS, and the NR taken up by viable cells was extracted using desorbing fixative (50% ethanol/1% acetic acid/49% water). Absorbance at 540 nm was measured using a Tecan M200 Infinite Pro microplate reader. Cytotoxicity was expressed as a concentration-dependent reduction of the uptake of NR, compared to the untreated controls, and the IC50 value for each compound was calculated.
# [2] = Cytotoxicity, neutral red uptake, 3T3; format: cell-based, murine; settings: mouse
# Procedure: as §1, §2
# [3] = Cytotoxicity, neutral red uptake, A549; format: cell-based; settings: human
# Procedure: as §1, §2
# SARS-CoV-2 nsp16/nsp10 = SARS-CoV-2 nsp16/nsp10 (Severe acute respiratory syndrome coronavirus 2, UniProt P0DTD1); test: biochemical; settings: for Ligand Efficiency (LE) nsp16: estimated from IC50 values
# [4] = target: T1, human Glycine N-Methyltransferase (GNMT) (Homo sapiens, UniProt Q14749); test: HTRF methyltransferase selectivity assay, human GNMT; format: biochemical; settings: for Ligand Efficiency (LE) Human (hMtase): estimated from IC50 values
# T1 construct: purchased MyBioSource MBS636160
# T1 sequence (Q14749 1-295): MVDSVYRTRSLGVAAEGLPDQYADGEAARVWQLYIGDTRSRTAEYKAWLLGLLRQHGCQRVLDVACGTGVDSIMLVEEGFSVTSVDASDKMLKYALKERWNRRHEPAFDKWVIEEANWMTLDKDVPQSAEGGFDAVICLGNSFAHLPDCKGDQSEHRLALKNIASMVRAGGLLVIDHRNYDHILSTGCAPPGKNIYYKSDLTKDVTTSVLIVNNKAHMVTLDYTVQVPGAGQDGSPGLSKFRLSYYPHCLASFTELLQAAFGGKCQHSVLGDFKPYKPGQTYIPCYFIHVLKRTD
# SARS-CoV-2 nsp14 = SARS-CoV-2 nsp14 (Severe acute respiratory syndrome coronavirus 2, UniProt P0DTD1); test: biochemical; settings: for Ligand Efficiency (LE) nsp14: estimated from IC50 values
# [5] = test system: 3T3, A549, and HepG2 cell lines; test: Cytotoxicity, summary statements over the three cell lines; format: cell-based; settings: 3T3, A549, HepG2
# Procedure: as §2
# [6] = A549, compound 20 μM, LOQ 0.2 μM or 1%
# [7] = 48 h, neutral red uptake, read-out: Cytotoxicity (CC50) HepG2
# [8] = 48 h, neutral red uptake, read-out: Cytotoxicity (CC50) 3T3
# [9] = 48 h, neutral red uptake, read-out: Cytotoxicity (CC50) A549
# [10] = HTRF, nsp16/nsp10, SAM 10 µM, m7GpppA-RNA, read-out: IC50 nsp16
# [11] = HTRF, SAM 10 µM, glycine 5 mM, read-out: IC50 Human (hMtase, human glycine N-methyltransferase)
# [12] = HTRF, SAM 10 µM, GpppG 4 µM, read-out: IC50 nsp14
Structure (SMILES),Ligand Efficiency (LE) nsp16 (SARS-CoV-2 nsp16/nsp10) [kcal/mol],"IC50 [4, 11] [µM]",Ligand Efficiency (LE) Human (hMtase) [4] [kcal/mol],IC50 (SARS-CoV-2 nsp14; [12]) [µM],Ligand Efficiency (LE) nsp14 (SARS-CoV-2 nsp14) [kcal/mol],"Percent inhibition at 100 μM, nsp16 (SARS-CoV-2 nsp16/nsp10) [%]","Percent inhibition at 100 μM, Human [4] [%]","Percent inhibition at 100 μM, nsp14 (SARS-CoV-2 nsp14) [%]",also measured
"Nc1ncnc2c1ncn2[C@@H]1O[C@H](C[C@@H](N)CC[C@H](N)C(=O)O)[C@@H](O)[C@H]1O [Sinefungin, reference compound]",,,,,,,,,"Cell Permeability, 2 × 10^4 Cells/L (A549 cell culture; [6]): <LOD; Cell Permeability, 4 × 10^4 Cells/L (A549 cell culture; [6]): <LOD; CC50 at 48 h [1, 7]: > 100 µM; CC50 at 48 h [2, 8]: 99.2 µM; CC50 at 48 h [3, 9]: 72.9 µM"
Cc1ccc(S(=O)(=O)OC[C@H]2O[C@@H](n3cnc4c(N)ncnc43)[C@H](O)[C@@H]2O)cc1 [ZINC3861767],0.28,2.8,0.26,1.5,0.27,,,,"Cell Permeability, 2 × 10^4 Cells/L (A549 cell culture; human, 20 μM): 2.2%; Cell Permeability, 4 × 10^4 Cells/L (A549 cell culture; human, 20 μM): 0.5%; CC50 at 48 h [1]: > 200 µM; CC50 at 48 h [2]: > 200 µM; CC50 at 48 h [3]: > 200 µM; IC50 (SARS-CoV-2 nsp16/nsp10; [10]): 1.14 µM"
CSC[C@H]1O[C@@H](n2cnc3c(N)ncnc32)[C@H](O)[C@@H]1O [ZINC4228245],0.41,1.8,0.39,1.4,0.40,,,,"Cell Permeability, 2 × 10^4 Cells/L (A549 cell culture; human, 20 μM): 0.7%; Cell Permeability, 4 × 10^4 Cells/L (A549 cell culture; human, 20 μM): 0.8%; CC50 at 48 h [1]: > 200 µM; CC50 at 48 h [2]: > 200 µM; CC50 at 48 h [3]: > 200 µM; IC50 (SARS-CoV-2 nsp16/nsp10): 1.02 µM"
O=C(CCCn1cncn1)N1CCCC(c2nc3ccccc3s2)C1 (stereo not drawn) [ZINC23398144],0.21,,0.20,,0.23,,,,"cell permeability (in words) (A549 cell culture; A549): low level of cell permeability; Cell Permeability, 2 × 10^4 Cells/L (A549 cell culture; [6]): 0.7%; Cell Permeability, 4 × 10^4 Cells/L (A549 cell culture; [6]): 0.6%; CC50 at 48 h [1, 7]: > 100 µM; CC50 at 48 h [2, 8]: > 100 µM; CC50 at 48 h [3, 9]: > 100 µM; IC50 (SARS-CoV-2 nsp16/nsp10): 197 ± 9 µM; inhibition at 100 µM (SARS-CoV-2 nsp16/nsp10; read-out: Percent inhibition at 100 μM, nsp16): 39 ± 7%; IC50 [4]: 315 ± 5 µM; inhibition at 100 µM ([4]; read-out: Percent inhibition at 100 μM, Human): 21 ± 2%; IC50 (SARS-CoV-2 nsp14): 77 ± 3 µM; inhibition at 100 µM (SARS-CoV-2 nsp14; read-out: Percent inhibition at 100 μM, nsp14): 57 ± 8%; cytotoxicity (in words) [5]: no measurable cytotoxicity"
Cc1nc(O)cc(CNc2nc3c(c(=O)[nH]2)Cc2ccccc2OC3)n1 [ZINC000095519272],0.21,53 ± 3,0.22,~200,0.19,57 ±13,70 ±3,49 ±17,IC50 (SARS-CoV-2 nsp16/nsp10; [10]): 95 ± 4 µM
O=C(CCCn1cnc2ccccc2c1=O)Nc1ccc2ncnc(O)c2c1 [ZINC000096114839],,,,,,17 ±5,83 ±6,28 ±7,
CCN(CCSc1ccccc1)C(=O)c1cc(-c2ccncc2)n[nH]1 [ZINC000097636636],,,,,,19 ±7,-46 ±2,5 ±2,
CC(C(=O)NCCCn1ccnn1)c1n[nH]c(=O)c2ccccc12 (stereo not drawn) [ZINC000215108606],,,,,,40 ±6,22 ±6,9 ±3,
O=C(Cn1ccc(=O)c2ccccc21)NCCSc1cnn[nH]1 [ZINC000218615582],,,,,,51 ±4,55 ±2,21 ±3,
CN(Cc1cccc2cnccc12)C(=O)CCC1(CCC(=O)O)CCC(=O)N1 (stereo not drawn) [ZINC000220483024],,,,,,31 ±6,16 ±4,-5 ±3,
CCNC(=O)NCCSC[C@H]1O[C@@H](n2cnc3c(N)ncnc32)[C@H](O)[C@@H]1O [ZINC473112262],0.28,5.8,0.26,3.1,0.28,,,,"Cell Permeability, 2 × 10^4 Cells/L (A549 cell culture; human, 20 μM): 0.3%; Cell Permeability, 4 × 10^4 Cells/L (A549 cell culture; human, 20 μM): 0.3%; CC50 at 48 h [1]: > 100 µM; CC50 at 48 h [2]: > 100 µM; CC50 at 48 h [3]: > 100 µM; IC50 (SARS-CoV-2 nsp16/nsp10; [10]): 2.46 µM"
CN(CC1CCN(c2ccccc2)C1)S(=O)(=O)c1ccc2[nH]c(=O)oc2c1 (stereo not drawn) [ZINC000952973746],,,,,,38 ±6,41 ±1,27 ±9,
